Measured values from PubChem BioAssay (NCI).
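Cells were grown in 96-well plates and exposed to each compound for 48 hours at five concentrations; endpoints were interpolated linearly between bracketing concentrations, or set to the highest concentration if not reached. At the GI50, growth is halved. TGI: concentration producing complete growth inhibition.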

What was measured:
Test in all cases: DTP human tumour cell line panel, 48 h
[1] = system: HOP-62 NSCLC
[2] = system: LOX IMVI melanoma
[3] = system: A549 NSCLC
[4] = system: CAKI-1 renal
[5] = system: MALME-3M melanoma
[6] = system: SW-620 colon
[7] = system: RXF 393 renal
[8] = system: EKVX NSCLC
[9] = system: HT29 colon
[10] = system: T-47D breast
[11] = system: U251 CNS
[12] = system: BT-549 breast
[13] = system: HS 578T breast
[14] = system: PC-3 prostate
[15] = system: NCI-H226 lung
[16] = system: HCT-116 colon
[17] = system: IGROV1 ovarian
[18] = system: NCI-H23 lung
[19] = system: SNB-75 CNS
[20] = system: SF-295 CNS
[21] = system: CCRF-CEM leukemia
[22] = system: M14 melanoma
[23] = system: SR leukemia
[24] = system: SNB-19 CNS
[25] = system: SK-OV-3 ovarian
[26] = system: NCI-H522 lung
[27] = system: A498 renal
[28] = system: UACC-62 melanoma
[29] = system: MOLT-4 leukemia

`Nc1nn2cc(F)cnc2c1C(=O)Nc1cncc(F)c1N1CCC(C(=O)N2CCN(C3COC3)CC2)CC1` showed a GI50 [1] of 676 nM, a TGI [1] of 3980 nM and a GI50 [2] of 285 nM. It also gave a TGI [2] of 1550 nM, a GI50 [3] of 266 nM and a TGI [3] greater than 100000 nM. For the same compound, the GI50 [4] was 235 nM, the TGI [4] was 3160 nM and the GI50 [5] was 608 nM. The TGI [5] was 12000 nM, the GI50 [6] was 1510 nM and the TGI [6] was greater than 100000 nM. For the same compound, the GI50 [7] was 110 nM, the TGI [7] was 778 nM and the GI50 [8] was 512 nM. The TGI [8] was greater than 100000 nM, the GI50 [9] was 452 nM and the TGI [9] was greater than 100000 nM. It also gave a GI50 [10] of 2040 nM, a TGI [10] greater than 100000 nM and a GI50 [11] of 656 nM. For the same compound, the TGI [11] was greater than 100000 nM, the GI50 [12] was 246 nM and the TGI [12] was 1550 nM. It also gave a GI50 [13] of 191 nM, a TGI [13] of 1480 nM and a GI50 [14] of 2060 nM. It also gave a TGI [14] greater than 100000 nM, a GI50 [15] of 1170 nM and a TGI [15] of 4450 nM. The GI50 [16] was 942 nM, the TGI [16] was greater than 29600 nM and the GI50 [17] was 464 nM. For the same compound, the TGI [17] was 3040 nM, the GI50 [18] was 60.6 nM and the TGI [18] was 498 nM. For the same compound, the GI50 [19] was 168 nM, the TGI [19] was 1500 nM and the GI50 [20] was 238 nM. The TGI [20] was 1860 nM, the GI50 [21] was 33.2 nM and the GI50 [22] was 154 nM. It also gave a TGI [22] of 5400 nM, a GI50 [23] of 61.9 nM and a TGI [23] of 894 nM. For the same compound, the GI50 [24] was 910 nM, the TGI [24] was 7680 nM and the GI50 [25] was 243 nM. It also gave a TGI [25] of 6020 nM, a GI50 [26] of 427 nM and a TGI [26] of 3050 nM. For the same compound, the GI50 [27] was 181 nM, the TGI [27] was 857 nM and the GI50 [28] was 522 nM. For the same compound, the TGI [28] was 2560 nM, the GI50 [29] was 71.2 nM and the TGI [29] was 762 nM.
